Biological target: T1, glucocerebrosidase (Gcase) (Homo sapiens, UniProt P04062)
T1 construct: micellar solution containing 10 nM GCase and 100 nM saposin C
T1 sequence (P04062 40-536): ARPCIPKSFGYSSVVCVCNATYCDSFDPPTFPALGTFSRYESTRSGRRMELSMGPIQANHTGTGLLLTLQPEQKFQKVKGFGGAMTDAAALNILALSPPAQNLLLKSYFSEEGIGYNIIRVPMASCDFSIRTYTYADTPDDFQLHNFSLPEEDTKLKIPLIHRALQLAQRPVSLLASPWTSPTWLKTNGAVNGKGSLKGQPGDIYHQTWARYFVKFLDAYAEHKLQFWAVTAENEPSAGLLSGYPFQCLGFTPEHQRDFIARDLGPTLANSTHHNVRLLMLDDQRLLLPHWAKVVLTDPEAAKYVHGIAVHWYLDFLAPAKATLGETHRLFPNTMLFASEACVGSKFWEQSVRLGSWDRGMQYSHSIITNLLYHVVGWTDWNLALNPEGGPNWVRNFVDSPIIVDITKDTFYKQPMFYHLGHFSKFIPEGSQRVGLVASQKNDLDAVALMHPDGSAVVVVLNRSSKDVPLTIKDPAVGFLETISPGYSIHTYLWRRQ
Assay: Glucocerebrosidase (Gcase) activation assay with 4-methylumbelliferyl-beta-D-glucopyranoside substrate, saposin C and phosphatidylserine/triton micelles, fluorescence readout
Format: biochemical
Conditions: for Percent Gcase Activation, 0.1 μM Test Compound: test compound at 0.1 μM; for Percent Gcase Activation, 1 μM Test Compound: test compound at 1.0 μM
Method in brief: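 Readout is endpoint fluorescence (ex 365, em 440 nm) after glycine pH 12.5 stop of a 15-min room-temperature reaction. Enzyme mix: GCase 10 nM plus saposin C 100 nM in 0.37 mol % PS/0.32 mM triton micelles, pH 4.7, compound pre-incubated 30 min; substrate solution 2 mM before 1:1 mixing. Tested at 1.0/0.1 μM, then 3-fold, 8-point series up to 5 μM.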

Row | Compound | Percent Gcase Activation, 0.1 μM Test Compound | Percent Gcase Activation, 1 μM Test Compound
1 | COc1cc(F)ccc1-c1cc(C)n2ncc(C(=O)NC(C)C(F)(F)F)c2n1 (stereo not drawn) [III-150] | *** (greater than 20% Gcase activation) | +++ (Gcase activation greater than 60%)
2 | Cc1cc(-c2ccc(F)cc2C#N)nc2c(C(=O)NC(C3CC3)C(F)(F)F)cnn12 (stereo not drawn) [III-151] | *** (greater than 20% Gcase activation) | +++ (Gcase activation greater than 60%)
3 | Cc1cc(-c2ccc(F)cc2C#N)nc2c(C(=O)N[C@@H](C)C3CC3)cnn12 [III-152] | *** (greater than 20% Gcase activation) | +++ (Gcase activation greater than 60%)
4 | Cc1cc(-c2ccc(F)cc2C#N)nc2c(C(=O)N[C@H](C)C3CC3)cnn12 [III-153] | ** (Gcase activation in the range of 10% up to 20%) | +++ (Gcase activation greater than 60%)
5 | Cc1cc(-c2ccc(F)cc2C#N)nc2c(C(=O)NC(C)C(F)(F)F)cnn12 (stereo not drawn) [III-154] | *** (greater than 20% Gcase activation) | +++ (Gcase activation greater than 60%)
6 | Cc1cc(-c2ccc(F)cc2C#N)nc2c(C(=O)N[C@H](C)C(F)(F)F)cnn12 [III-155] | * (less than 10% Gcase activation) | ++ (Gcase activation in the range of 30% up to 60%)
7 | Cc1cc(-c2ccc(F)cc2C#N)nc2c(C(=O)N[C@@H](C)C(F)(F)F)cnn12 [III-156] | *** (greater than 20% Gcase activation) | +++ (Gcase activation greater than 60%)
8 | Cc1cc(-c2ccc(F)c(C#N)c2)nc2c(C(=O)N[C@@H](C)C3CC3)cnn12 [III-157] | *** (greater than 20% Gcase activation) | +++ (Gcase activation greater than 60%)
9 | Cc1cc(-c2ccc(F)c(C#N)c2)nc2c(C(=O)NC(C3CC3)C(F)(F)F)cnn12 (stereo not drawn) [III-158] | *** (greater than 20% Gcase activation) | +++ (Gcase activation greater than 60%)
10 | Cc1cc(-c2ccc(F)c(C#N)c2)nc2c(C(=O)NC(C)C(F)(F)F)cnn12 (stereo not drawn) [III-159] | ** (Gcase activation in the range of 10% up to 20%) | +++ (Gcase activation greater than 60%)
11 | Cc1cc(-c2ccc(F)c(C(N)=O)c2)nc2c(C(=O)N[C@@H](C)C3CC3)cnn12 [III-160] | ** (Gcase activation in the range of 10% up to 20%) | +++ (Gcase activation greater than 60%)
12 | Cc1cc(-c2cccc(C(N)=O)n2)nc2c(C(=O)NC(C3CC3)C(F)(F)F)cnn12 (stereo not drawn) [III-161] | * (less than 10% Gcase activation) | +++ (Gcase activation greater than 60%)
13 | Cc1cc(-c2ccc(F)c(C(N)=O)c2)nc2c(C(=O)NC(C3CC3)C(F)(F)F)cnn12 (stereo not drawn) [III-162] | *** (greater than 20% Gcase activation) | +++ (Gcase activation greater than 60%)
14 | Cc1cc(-c2ccc(F)cc2)nc2c(C(=O)NC(C3CC3)C(F)(F)F)cnn12 (stereo not drawn) [III-163] | *** (greater than 20% Gcase activation) | +++ (Gcase activation greater than 60%)
15 | Cc1cc(-c2ccc(F)cc2)nc2c(C(=O)NC(C)C(F)(F)F)cnn12 (stereo not drawn) [III-164] | *** (greater than 20% Gcase activation) | +++ (Gcase activation greater than 60%)
16 | Cc1cc(NC2CC2)nc2c(C(=O)NC(C)C(F)(F)F)cnn12 (stereo not drawn) [III-165] | ** (Gcase activation in the range of 10% up to 20%) | +++ (Gcase activation greater than 60%)
17 | Cc1cc(NC2CC2)nc2c(C(=O)N[C@@H](C)C3CC3)cnn12 [III-166] | ** (Gcase activation in the range of 10% up to 20%) | +++ (Gcase activation greater than 60%)
18 | Cc1cc(-c2ccc3ocnc3c2)nc2c(C(=O)N[C@H](C)C(F)(F)F)cnn12 [III-167] | *** (greater than 20% Gcase activation) | +++ (Gcase activation greater than 60%)
19 | Cc1cc(-c2ccc3ocnc3c2)nc2c(C(=O)N[C@@H](C)C(F)(F)F)cnn12 [III-168] | *** (greater than 20% Gcase activation) | +++ (Gcase activation greater than 60%)
20 | Cc1cc(-c2ccc3ocnc3c2)nc2c(C(=O)NC(C)C(F)(F)F)cnn12 (stereo not drawn) [III-169] | *** (greater than 20% Gcase activation) | +++ (Gcase activation greater than 60%)
21 | Cc1cc(-n2ccc(Cl)n2)nc2c(C(=O)NC(C)C(F)(F)F)cnn12 (stereo not drawn) [III-170] | ** (Gcase activation in the range of 10% up to 20%) | ++ (Gcase activation in the range of 30% up to 60%)
22 | Cc1cc(-n2ccc(F)n2)nc2c(C(=O)NC(C3CC3)C(F)(F)F)cnn12 (stereo not drawn) [III-172] | *** (greater than 20% Gcase activation) | +++ (Gcase activation greater than 60%)
23 | Cc1cc(-n2ccc(F)n2)nc2c(C(=O)N[C@H](C3CC3)C(F)(F)F)cnn12 [III-173] | *** (greater than 20% Gcase activation) | +++ (Gcase activation greater than 60%)
24 | Cc1cc(-n2ccc(F)n2)nc2c(C(=O)N[C@@H](C3CC3)C(F)(F)F)cnn12 [III-174] | *** (greater than 20% Gcase activation) | +++ (Gcase activation greater than 60%)
25 | Cc1cc(-c2cccc(-c3ncccn3)n2)nc2c(C(=O)NC(C3CC3)C(F)(F)F)cnn12 (stereo not drawn) [III-175] | * (less than 10% Gcase activation) | + (less than 30% Gcase activation)
26 | Cc1cc(-c2cccc(-c3ncon3)c2)nc2c(C(=O)NC(C3CC3)C(F)(F)F)cnn12 (stereo not drawn) [III-176] | *** (greater than 20% Gcase activation) | +++ (Gcase activation greater than 60%)
27 | Cc1cc(-c2cccc(-c3ncncn3)c2)nc2c(C(=O)NC(C3CC3)C(F)(F)F)cnn12 (stereo not drawn) [III-177] | *** (greater than 20% Gcase activation) | +++ (Gcase activation greater than 60%)

Source: US10934298B2, “Substituted pyrazolo[1,5-a]pyrimidines for the treatment of medical disorders” (BIAL—BioTech Investments, Inc., priority 2016, dated 2021)
